Measured values published in patent US20070004634A1 (Novo Nordisk A/S, priority 1998, published 2007).
Like-named read-outs stand apart in the source and are kept apart here. Residues, ends and D or L forms follow the SMILES beside them. No end group written: not given here.

Legend:
[1] = tested on: FDC-P2 cells expressing the IL-3 and human IGF-1R receptors; assay: IGF-1 proliferation assay in FDC-P2 cells, agonist format; conditions: for FDC-P2 Agonist: FDC-P2 cell proliferation, agonist effect; for agonist activity at IGF-1R, in words / EC50: FDC-P2 cells
[2] = tested on: FDC-P2 cells expressing the IL-3 and human IGF-1R receptors; assay: IGF-1 proliferation assay in FDC-P2 cells, antagonist format; conditions: FDC-P2 cells
IGF-1R [3] = molecular target: T1, IGF-1R (Homo sapiens, UniProt P08069); assay: Phage competition ELISA on IGF-1R; assay type: binding; parameters: included the heterotetrameric (alpha 2-beta 2) extracellular domain of IGF-1R; purchased R&D Systems 391-GR/CF; host or cells: mouse myeloma cell line; conditions: phage RP9, RP6, D8B12, D815
Protocol: Wells were blocked with 4% non-fat milk in PBS for 60 min at room temperature. One hundred microliters of rescued phage were added to each well. […] The labeled antibody was incubated at room temperature for 60 min. After washing, 100 μl of ABTS was added per well and the plates read in a microtiter reader at […]. […] (Site 2). Peptides included RP9 and […]. Phage competition studies were also performed with Site 2-Site 1 dimer peptides containing 6- or 12-amino acid linkers. […] Wells were blocked with 4% non-fat milk in PBS for 60 min at room temperature. One hundred microliters of rescued phage were added to each well. Peptides in varying concentrations were added and the mixture incubated for 2 h at room temperature. […] The labeled antibody was incubated for 60 min at room temperature. After washing, 100 μl of ABTS was added per well and the plates read in a microtiter reader at […]. […] Linker sequences are underlined and shown below.

[4] = molecular target: T2, human insulin receptor (HIR) (Homo sapiens, UniProt P06213); assay: Insulin receptor binding, competition with 125I-labeled insulin (HIR Kd); conditions: read-out: IC50 (nM), HIR, 125I-insulin, RRA; target HIR; label 125I-insulin; radio-receptor assay
T2 construct: made in house

[5] = molecular target: T3, soluble human insulin receptor-immunoglobulin heavy chain chimera (sIR-Fc) (Homo sapiens, UniProt P06213); assay: TR-FRET competition with biotinylated RP9 (b-RP9) for sIR-Fc; assay type: binding; conditions: for Hill, sIR-Fc, b-RP9, FRET: Hill slope, target sIR-Fc, label b-RP9, TR-FRET
T3 construct: replacing the transmembrane domain and the intracellular domain of IR with constant domains from immunoglobulin Fc or λ subunits; made in house; host or cells: human embryonic kidney 293 cells (Bass et al.)

[6] = molecular target: T3, soluble human insulin receptor-immunoglobulin heavy chain chimera (sIR-Fc); assay: TR-FRET competition with biotinylated S175 (b-S175) for sIR-Fc; assay type: binding; conditions: target sIR-Fc, label b-S175; for Hill, sIR-Fc, b-S175, FRET: Hill slope
[7] = tested on: soluble human insulin mini-receptor (mIR); assay: Fluorescence polarization, competition with FITC-RP9 for mIR; assay type: binding
Protocol: The FP assays were performed in a 384-well black microplate with a final volume of 30 μl.

[8] = molecular target: T3, soluble human insulin receptor-immunoglobulin heavy chain chimera (sIR-Fc); assay: Fluorescence polarization, competition with FITC-RP9 for sIR-Fc; assay type: binding; conditions: for Hill, sIR-Fc, FITC-RP9, FP: Hill slope
IGF-1R [9] = molecular target: T1, IGF-1R; assay: TR-FRET competition with biotinylated-20E2 for rhIGF-1R; conditions: TR-FRET (rhIGF-1R, b-20E2) versus FP (sIR-Fc), summary of Table 22
[10] = tested on: free fat cells (adipocytes); assay: Adipocyte / free fat cell (FFC) assay, 3H glucose incorporation into lipid
MCF-7 cells = assay: MCF-7 cell proliferation assay, IGF-1R agonist format; assay type: cell-based, human; conditions: for MCF-7 Agonist: MCF-7 cell proliferation, agonist effect
Source text: ; FIGS. 65A-65F), and were used for subsequent experiments.

MiaPaCa cells = assay: MiaPaCa cell proliferation assay, IGF-1R agonist format; assay type: cell-based, human; conditions: for MiaPaCa Agonist: MiaPaCa cell proliferation, agonist effect
[11] = molecular target: T4, soluble HIR ectodomain (sIR) (Homo sapiens, UniProt P06213); assay: Fluorescence polarization, competition with FITC-RP9 for sIR; assay type: binding; conditions: Hill slope, target sIR, label FITC-RP9
T4 construct: soluble HIR ectodomain (sIR); Kristensen et al., 1998

[12] = read-out: ED50, agonist activity at IGF-1R
[13] = target sIR-Fc, label FITC-RP9, fluorescence polarization
[14] = free fat cell assay class, Table 9

T1 sequence (P08069 31-736 limits assumed): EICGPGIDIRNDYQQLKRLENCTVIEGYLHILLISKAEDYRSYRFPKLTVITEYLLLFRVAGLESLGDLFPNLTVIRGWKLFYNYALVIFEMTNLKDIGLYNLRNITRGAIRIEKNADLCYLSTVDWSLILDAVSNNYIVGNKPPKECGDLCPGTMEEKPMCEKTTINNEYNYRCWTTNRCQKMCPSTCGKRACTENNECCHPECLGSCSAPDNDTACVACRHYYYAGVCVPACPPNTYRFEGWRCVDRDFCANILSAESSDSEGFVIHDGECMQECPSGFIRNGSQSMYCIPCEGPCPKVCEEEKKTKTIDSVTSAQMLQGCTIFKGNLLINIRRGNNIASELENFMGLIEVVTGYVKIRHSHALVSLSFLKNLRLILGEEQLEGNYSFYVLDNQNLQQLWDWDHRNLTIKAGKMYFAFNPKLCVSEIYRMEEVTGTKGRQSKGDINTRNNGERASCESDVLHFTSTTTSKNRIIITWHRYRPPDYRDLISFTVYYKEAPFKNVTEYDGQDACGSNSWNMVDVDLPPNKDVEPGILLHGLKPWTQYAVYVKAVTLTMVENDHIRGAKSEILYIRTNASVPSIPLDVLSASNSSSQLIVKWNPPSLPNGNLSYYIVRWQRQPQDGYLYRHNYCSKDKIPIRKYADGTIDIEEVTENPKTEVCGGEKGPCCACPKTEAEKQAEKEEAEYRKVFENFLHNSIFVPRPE
T1 sequence (P08069 741-935 limits assumed): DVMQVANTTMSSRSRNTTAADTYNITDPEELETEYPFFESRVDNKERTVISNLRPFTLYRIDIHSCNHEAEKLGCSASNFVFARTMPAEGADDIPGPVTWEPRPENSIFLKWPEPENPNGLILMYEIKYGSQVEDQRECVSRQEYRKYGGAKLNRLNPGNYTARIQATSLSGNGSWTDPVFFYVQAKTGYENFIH
T3 sequence (P06213 28-758 limits assumed, stated change not applied): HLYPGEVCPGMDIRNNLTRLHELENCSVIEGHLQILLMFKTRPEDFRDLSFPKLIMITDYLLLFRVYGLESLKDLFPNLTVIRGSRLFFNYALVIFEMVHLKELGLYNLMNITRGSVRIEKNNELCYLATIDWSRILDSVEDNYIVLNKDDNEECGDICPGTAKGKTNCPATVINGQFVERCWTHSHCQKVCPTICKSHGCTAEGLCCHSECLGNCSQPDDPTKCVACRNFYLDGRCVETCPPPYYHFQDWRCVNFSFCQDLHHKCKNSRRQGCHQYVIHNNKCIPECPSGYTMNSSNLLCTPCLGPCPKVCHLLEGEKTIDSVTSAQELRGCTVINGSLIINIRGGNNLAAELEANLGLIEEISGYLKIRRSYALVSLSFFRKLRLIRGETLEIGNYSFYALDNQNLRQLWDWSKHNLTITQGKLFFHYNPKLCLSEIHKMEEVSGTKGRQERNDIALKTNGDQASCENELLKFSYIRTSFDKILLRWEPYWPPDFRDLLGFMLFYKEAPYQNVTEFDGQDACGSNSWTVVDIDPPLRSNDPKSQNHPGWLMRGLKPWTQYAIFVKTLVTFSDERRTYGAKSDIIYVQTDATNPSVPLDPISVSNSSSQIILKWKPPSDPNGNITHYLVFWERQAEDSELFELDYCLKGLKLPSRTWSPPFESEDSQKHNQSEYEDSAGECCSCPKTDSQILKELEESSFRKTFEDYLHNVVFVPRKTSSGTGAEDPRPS
T3 sequence (P06213 763-956 limits assumed, stated change not applied): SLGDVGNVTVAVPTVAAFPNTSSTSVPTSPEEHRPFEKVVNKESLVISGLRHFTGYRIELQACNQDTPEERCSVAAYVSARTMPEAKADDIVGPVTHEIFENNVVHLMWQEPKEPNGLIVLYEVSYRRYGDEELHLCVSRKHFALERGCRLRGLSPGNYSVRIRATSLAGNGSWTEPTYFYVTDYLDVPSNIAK
T4 sequence (P06213 28-758 limits assumed): as the sequence (P06213 28-758 limits assumed, stated change not applied) above
T4 sequence (P06213 763-956 limits assumed): as the sequence (P06213 763-956 limits assumed, stated change not applied) above
T2 sequence (P06213 28-758 limits assumed): as the sequence (P06213 28-758 limits assumed, stated change not applied) above
T2 sequence (P06213 763-1382 limits assumed): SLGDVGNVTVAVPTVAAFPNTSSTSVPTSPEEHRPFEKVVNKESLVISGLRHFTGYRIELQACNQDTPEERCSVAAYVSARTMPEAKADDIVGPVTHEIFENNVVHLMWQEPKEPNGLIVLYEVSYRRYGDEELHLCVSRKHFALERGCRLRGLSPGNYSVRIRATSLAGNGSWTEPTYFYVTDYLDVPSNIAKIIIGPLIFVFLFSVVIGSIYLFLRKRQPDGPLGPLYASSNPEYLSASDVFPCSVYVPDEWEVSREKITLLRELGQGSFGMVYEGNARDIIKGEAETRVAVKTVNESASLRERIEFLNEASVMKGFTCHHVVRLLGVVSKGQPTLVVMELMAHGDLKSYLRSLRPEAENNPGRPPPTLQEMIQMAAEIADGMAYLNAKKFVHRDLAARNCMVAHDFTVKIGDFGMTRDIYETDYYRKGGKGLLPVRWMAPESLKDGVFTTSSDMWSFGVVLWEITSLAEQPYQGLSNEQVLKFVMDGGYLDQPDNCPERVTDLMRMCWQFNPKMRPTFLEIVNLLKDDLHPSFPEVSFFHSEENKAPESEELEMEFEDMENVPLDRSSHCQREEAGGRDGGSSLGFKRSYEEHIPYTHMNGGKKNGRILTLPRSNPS

Compound: CC[C@H](C)[C@@H]1NC(=O)[C@H](CCC(=O)O)NC(=O)[C@@H](NC(=O)[C@H](Cc2c[nH]c3ccccc23)NC(=O)[C@H](CC(C)C)NC(=O)[C@H](Cc2c[nH]c3ccccc23)NC(=O)[C@H](C)NC(=O)[C@H](CCCNC(=N)N)NC(=O)[C@H](CCC(=O)O)NC(=O)[C@H](CCC(N)=O)NC(=O)[C@H](CC(=O)O)NC(=O)[C@H](CC(C)C)NC(=O)[C@@H](N)Cc2c[nH]c3ccccc23)CSSC[C@@H](C(=O)N[C@@H](CC(C)C)C(=O)N[C@@H](CO)C(=O)O)NC(=O)CNC(=O)[C@H](CCCNC(=N)N)NC(=O)CNC(=O)[C@H](CO)NC1=O [Peptide D815]
- FDC-P2 Agonist [1]: +
- agonist activity at IGF-1R, in words [1]: IGF-1R agonist activity
- EC50 [1, 12]: ~2 µM
- antagonist activity at IGF-1R, in words [2]: no antagonist activity
- competition of Site 1 and Site 2 phage on IGF-1R (IGF-1R [3]): competed both Site 1 and Site 2 phage

Compound: CC(C)C[C@H](NC(=O)[C@H](Cc1c[nH]c2ccccc12)NC(=O)[C@H](CCC(=O)O)NC(=O)[C@H](Cc1ccc(O)cc1)NC(=O)CNC(=O)[C@@H]1CCCN1C(=O)[C@H](Cc1c[nH]c2ccccc12)NC(=O)[C@@H](NC(=O)[C@@H](NC(=O)CNC(=O)CN)[C@@H](C)O)C(C)C)C(=O)N[C@@H](CCCNC(=N)N)C(=O)N[C@@H](CC(N)=O)C(=O)N[C@@H](C)C(=O)O [Peptide E8]
- IC50 [4]: 2200 nM
- competition with FITC-RP9 or b-RP9 peptides for binding to sIR-Fc [5]: able to compete
- Hill, sIR-Fc, b-S175, FRET [6]: −0.74
- IC50 [6]: 755 nM
- competition with peptide ligands such as FITC-RP9 for binding to mIR [7]: did not compete
- IC50 ([7]; target mIR, label FITC-RP9, fluorescence polarization, read-out: IC50 (nM), mIR, FITC-RP9, FP): > 100000 nM
- Hill, sIR-Fc, FITC-RP9, FP [8, 13]: −0.49
- IC50 ([8]; target sIR-Fc, label FITC-RP9, fluorescence polarization, read-out: IC50 (nM), sIR-Fc, FITC-RP9, FP): 207 nM
- IC50 ([8]; vs. FITC-RP9, read-out: FP sIR-Fc IC50): 206 nM
- binding to IGF-1R compared with IR, in words (IGF-1R [9]): comparable binding to IGF-1R and IR
- FFC [10, 14]: −

Compound: CC[C@H](C)[C@H](NC(=O)CN)C(=O)N[C@H](C(=O)N[C@@H](CO)C(=O)N[C@@H](CCC(N)=O)C(=O)N[C@@H](CO)C(=O)N[C@H]1CSSC[C@@H](C(=O)N[C@@H](Cc2c[nH]c3ccccc23)C(=O)O)NC(=O)[C@H](Cc2c[nH]c3ccccc23)NC(=O)[C@H](Cc2c[nH]c3ccccc23)NC(=O)[C@@H]2CCCN2C(=O)[C@H](CC(=O)O)NC(=O)[C@H](CO)NC(=O)[C@H](C(C)C)NC(=O)[C@H](CCC(N)=O)NC(=O)CNC(=O)[C@H](C)NC(=O)[C@H](Cc2ccccc2)NC(=O)[C@H](Cc2c[nH]c3ccccc23)NC(=O)[C@H](CC(=O)O)NC(=O)[C@H](Cc2ccc(O)cc2)NC(=O)[C@H](Cc2ccccc2)NC(=O)[C@H](CO)NC(=O)[C@H](CCC(=O)O)NC(=O)[C@@H]2CCCN2C1=O)[C@@H](C)CC [Peptide G33] (HELM PEPTIDE1{G.I.I.S.Q.S.C.P.E.S.F.Y.D.W.F.A.G.Q.V.S.D.P.W.W.C.W}$PEPTIDE1,PEPTIDE1,7:R3-25:R3$$$V2.0; N-terminus and C-terminus assumed; bridges inferred)
- potency / affinity at IR, in words ([8]; FP with FITC-RP9, summary of Table 22): less potent
- Bndg Ratio IGF-1R/IR ([8]; higher values indicated higher affinity for IR than IGF-1R): 1.3
- IGF-1R agonist activity, proliferation of MCF-7 and MiaPaCa cells, in words (MCF-7 cells; MCF-7 and MiaPaCa cells (Tables 27-28)): IGF-1R agonist activity
- MCF-7 Agonist (MCF-7 cells): +
- MiaPaCa Agonist (MiaPaCa cells): +
- binding to IGF-1R compared with IR, in words (IGF-1R [9]): comparable binding to IGF-1R and IR
- FDC-P2 Agonist [1]: +
- agonist activity at IGF-1R, in words [1]: IGF-1R agonist activity
- EC50 [1, 12]: ~10 µM
- antagonist activity at IGF-1R, in words [2]: no antagonist activity

Compound: CC(C)C[C@H](NC(=O)[C@H](CCC(=O)O)NC(=O)[C@H](C)NC(=O)[C@@H](NC(=O)[C@H](Cc1ccccc1)NC(=O)[C@H](Cc1c[nH]c2ccccc12)NC(=O)[C@H](CC(=O)O)NC(=O)[C@H](Cc1ccc(O)cc1)NC(=O)[C@H](Cc1ccccc1)NC(=O)[C@H](CC(N)=O)NC(=O)[C@H](C)NC(=O)[C@H](CC(N)=O)NC(=O)[C@H](CCCNC(=N)N)NC(=O)[C@H](CCC(N)=O)NC(=O)[C@H](CC(C)C)NC(=O)[C@H](Cc1c[nH]c2ccccc12)NC(=O)[C@H](CC(=O)O)NC(=O)[C@@H](NC(=O)[C@H](CCCNC(=N)N)NC(=O)CN)C(C)C)C(C)C)C(=O)NCC(=O)O [Peptide S175]
- Hill, sIR-Fc, b-RP9, FRET [5]: −0.74
- Hill, sIR-Fc, b-S175, FRET [6]: −0.58
- Hill, sIR, FITC-RP9, FP [11]: −0.36
- Hill, sIR-Fc, FITC-RP9, FP [8, 13]: −0.56
- binding to IGF-1R compared with IR, in words (IGF-1R [9]): high binding ratios for IGF-1R over IR
- agonist activity at IGF-1R, in words [1]: IGF-1R agonist activity
- EC50 ([1]; read-out: Cellular EC50, stimulation of proliferation): 10 µM
- FFC ([10]; FFC assay potency grade, 0, + to ++++++, −): +++

Compound: CC(C)C[C@H](NC(=O)[C@H](CCC(N)=O)NC(=O)[C@H](CCCNC(=N)N)NC(=O)[C@H](CCC(=O)O)NC(=O)[C@H](Cc1ccccc1)NC(=O)[C@H](Cc1c[nH]c2ccccc12)NC(=O)[C@H](CC(=O)O)NC(=O)[C@H](Cc1ccc(O)cc1)NC(=O)[C@H](Cc1ccccc1)NC(=O)[C@H](CO)NC(=O)[C@@H](N)CCC(=O)O)C(=O)NCC(=O)O [Peptide S390]
- Hill, sIR-Fc, b-RP9, FRET [5]: −0.49
- Hill, sIR-Fc, b-S175, FRET [6]: −0.49
- Hill, sIR, FITC-RP9, FP [11]: −0.64
- activity in the free fat cell (FFC) assay / at IR, in words [10]: potency similar to full-length RP9 monomer peptides
- FFC ([10]; Table 6, free fat cell assay): +
- FFC [10, 14]: +
- FFC ([10]; free fat cell assay potency class, Table 7): +

Compound: Insulin-like growth factor 1 [IGF-1, reference compound]
- EC50 (MCF-7 cells; MCF-7 cells, serum-free conditions, read-out: ED50, proliferation): 0.005 µM
- EC50 (MiaPaCa cells; MiaPaCa cells, serum-free conditions, read-out: ED50, proliferation): 0.005 µM

Compound: RP6-D8B12 (TFYSCLASLLTGTPQPNRGPWERCRWLEQERAWIWCEIQGSGCRA; not fully specified; cysteine pairing not given here)
- MCF-7 Agonist (MCF-7 cells): +
- MiaPaCa Agonist (MiaPaCa cells): +
